Measurements as given in patent US6420137B1 (American Home Products Corporation, priority 1998, dated 2002).
Where a name gives a salt, the structure may show the parent alone.

What was measured:
HNT2RS [1] = assay: GTP sensitivity of [3H]NT binding, CHO-K1 membranes stably expressing HNT2RS; parameters: species or system human
Experimental: GTP sensitivity. These radioligand binding assays were performed in 96-well microtiter plates using 1×binding buffer (50 mM HEPES, pH 7.4, 10 mM MgCl2, 0.4% BSA, pH 7.4) containing protease inhibitors (5 μg/ml leupeptin, 5 μg/ml aprotinin, 100 μg/ml bacitracin, and 100 μg/ml benzamidine). […] Wells A1-6 were repeated for each membrane preparation to be tested for GTP sensitivity. Binding reactions were initiated by adding 5-100 μg of membrane protein in a 170 μl volume. Final reaction volume was 200 μl/well. The microtiter plate was placed on a rotary shaker at 200 rpm and incubated at room temperature for 2 hours. Free radioligand was separated from bound ligand by rapid filtration through a glass fiber (GF/C) filter plate pretreated with 0.3% polyethyleneimine using a Packard cell harvester. The filter plates were then washed several times with cold (4° C.) binding buffer lacking BSA. After the filter plates were dried in a 37° C. incubator for 2 hours, 25 μl Microscint scintillation fluid (Packard) was added to each well and the plate was counted in a Packard Top Count scintillation counter.

HNT2R = molecular target: T1, HNT2R (Homo sapiens, UniProt O95665); assay: GTP sensitivity of [3H]NT binding, CHO-K1 membranes stably expressing HNT2R
T1 construct: The HindIII and XbaI digested full-length receptor cDNAs were inserted into the pRC/CMV (Invitrogen) vector; expressed in transfected cells; host or cells: GH4C1 (rat pituitary) membranes for A6 and A8; CHO-K1 membranes for A9; SK-N-MC whole cells for A11

H1-histamine receptors = H1-histamine receptors (Homo sapiens, UniProt P35367); details: cited from earlier work
[2] = system: neurotensin receptor subtypes NT1R, NT2R, NT3R; details: cited from earlier work
fasted ob/ob males = assay: Effect of AcNT(8-13) on appetite / food consumption in mouse models of obesity; type: in vivo
From the text: (§1) Obesity is associated with decreased metabolic energy expenditure and increased metabolic efficiency. Increasing metabolic energy expenditure (thermogenesis) is a desirable characteristic of anti-obesity targets.

HNT2RL = molecular target: T2, HNT2RL (Homo sapiens, UniProt O95665); assay: Competition of [3H]neurotensin binding, membranes from GH4C1 cells stably expressing HNT2RL; details: HNT2RL (long form), FIG. 1A
T2 construct: The HindIII and XbaI digested full-length receptor cDNAs were inserted into the pRC/CMV (Invitrogen) vector; expressed in transfected cells; host or cells: GH4C1 (rat pituitary) membranes for A6 and A8; CHO-K1 membranes for A9; SK-N-MC whole cells for A11
Experimental: (§2) A: Binding to membranes from GH4C1 cells stably expressing HNT2RL. B: Binding to membranes from GH4C1 cells stably expressing HNT2RS.
The adherent cells were removed from the plates with PBS and 2 mM EDTA, pelleted by centrifugation at 1,500×g for 10 minutes at 4° C., and resuspended in ice cold homogenization buffer (1 mM sodium bicarbonate, 1 mM EDTA, 1 mM EGTA, pH 7.2) containing 1×protease inhibitors (5 μg/ml leupeptin, 5 μug/ml aprotinin, 100 μg/ml bacitracin, and 100 μg/ml benzamidine). After 10 minutes on ice, the cells were lysed by dounce homogenizing for 20 strokes in a glass/glass homogenizer. The cell lysate was centrifuged at 1,500×g for 10 minutes at 4° C. to remove the nuclei and cell debris and the supernatant containing the cell membranes were harvested by centrifugation at 20,000×g for 30 minutes at 4° C. The membrane pellet was resuspended in 1×homogenization buffer containing 1×protease inhibitors and once again pelleted. […]
The microtiter plate was placed on a rotary shaker at 200 rpm and incubated at room temperature for 2 hours. […] After the filter plates were dried in a 37° C. incubator for 2 hours, 25 μl Microscint scintillation fluid (Packard) was added to each well and the plate was counted in a Packard Top Count scintillation counter.

HNT2RS [3] = assay: Competition of [3H]neurotensin binding, membranes from GH4C1 cells stably expressing HNT2RS; parameters: species or system human; details: HNT2RS (short form), FIG. 1B
Experimental: as §2
The adherent cells were removed from the plates with PBS and 2 mM EDTA, pelleted by centrifugation at 1,500×g for 10 minutes at 4° C., and resuspended in ice cold homogenization buffer (1 mM sodium bicarbonate, 1 mM EDTA, 1 mM EGTA, pH 7.2) containing 1×protease inhibitors (5 μg/ml leupeptin, 5 μug/ml aprotinin, 100 μg/ml bacitracin, and 100 μg/ml benzamidine). After 10 minutes on ice, the cells were lysed by dounce homogenizing for 20 strokes in a glass/glass homogenizer. The cell lysate was centrifuged at 1,500×g for 10 minutes at 4° C. to remove the nuclei and cell debris and the supernatant containing the cell membranes were harvested by centrifugation at 20,000×g for 30 minutes at 4° C. The membrane pellet was resuspended in 1×homogenization buffer containing 1×protease inhibitors and once again pelleted. The membrane pellet was then resuspended at 1-5 mg/ml in 25 mM Tris, pH 7.4 and either directly used in binding assays or frozen (−80° C.) in small aliquots for future use.
Radioligand binding assays: competition binding. All radioligand binding assays were performed in 96-well microtiter plates using 1×binding buffer (50 mM HEPES, pH 7.4, 10 mM MgCl2, 0.2% BSA, pH 7.4) containing protease inhibitors (5 μg/ml leupeptin, 5 μmg/ml aprotinin, 100 μg/ml bacitracin, and 100 μg/ml benzamidine). […] Binding reactions were initiated by adding 5-100 μg of membrane protein in a 170 μl volume. Final reaction volume was 200 μl/well.
The microtiter plate was placed on a rotary shaker at 200 rpm and incubated at room temperature for 2 hours. Free radioligand was separated from bound ligand by rapid filtration through a glass fiber (GF/C) filter plate pretreated with 0.3% polyethyleneimine for 30 minutes) using a Packard cell harvester. […] After the filter plates were dried in a 37° C. incubator for 2 hours, 25 μl Microscint scintillation fluid (Packard) was added to each well and the plate was counted in a Packard Top Count scintillation counter.

[4] = Acute metabolic responses to AcNT(8-13): lipolysis, oxygen consumption; type: in vivo; details: administered acutely
From the text: as §1

Chain of H1-histamine receptors (P35367 whole entry): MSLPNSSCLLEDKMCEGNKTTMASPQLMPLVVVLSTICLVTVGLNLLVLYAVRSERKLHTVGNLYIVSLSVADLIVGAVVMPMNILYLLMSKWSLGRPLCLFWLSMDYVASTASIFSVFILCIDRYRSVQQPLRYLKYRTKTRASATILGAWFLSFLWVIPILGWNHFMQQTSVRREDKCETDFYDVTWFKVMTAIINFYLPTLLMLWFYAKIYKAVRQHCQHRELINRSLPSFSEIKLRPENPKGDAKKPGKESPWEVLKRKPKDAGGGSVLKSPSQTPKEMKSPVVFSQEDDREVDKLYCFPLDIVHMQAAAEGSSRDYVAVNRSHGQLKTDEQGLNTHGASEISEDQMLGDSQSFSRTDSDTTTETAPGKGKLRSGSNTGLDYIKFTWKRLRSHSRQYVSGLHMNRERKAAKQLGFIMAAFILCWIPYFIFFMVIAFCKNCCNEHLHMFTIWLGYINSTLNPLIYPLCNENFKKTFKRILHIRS
T2 sequence (O95665 whole entry): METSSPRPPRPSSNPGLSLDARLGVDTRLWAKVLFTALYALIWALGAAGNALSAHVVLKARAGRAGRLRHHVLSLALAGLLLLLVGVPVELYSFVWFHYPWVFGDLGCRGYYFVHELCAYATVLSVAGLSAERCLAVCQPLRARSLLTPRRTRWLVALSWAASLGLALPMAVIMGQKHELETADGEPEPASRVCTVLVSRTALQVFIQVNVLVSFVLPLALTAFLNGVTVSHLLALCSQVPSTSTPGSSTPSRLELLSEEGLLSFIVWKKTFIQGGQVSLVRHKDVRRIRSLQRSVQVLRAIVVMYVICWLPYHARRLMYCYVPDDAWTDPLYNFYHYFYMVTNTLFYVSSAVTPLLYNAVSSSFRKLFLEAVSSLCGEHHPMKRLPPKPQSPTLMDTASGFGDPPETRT
T1 sequence (O95665 whole entry): as above

## Nc1nc2c(ncn2[C@@H]2O[C@H](COP(=O)(O)OP(=O)(O)OP(O)(O)=S)[C@@H](O)[C@H]2O)c(=O)[nH]1 [GTPγS]
HNT2RS [1]
  % Decrease in [3H]NT Bound in Presence of 100 μM GTPγS: 35.3%
HNT2R
  % Decrease in [3H]NT Bound in Presence of 100 μM GTPγS: 51.5%

## c1ccncc1 [Pyridine, pyridine]
H1-histamine receptors
  binding to H1-histamine receptors: high affinity binding
[2]
  binding to NTR subtypes: not to any NTR subtypes
Fasted ob/ob males; antihistamine at 1 mg/kg
  block of AcNT(8-13)-mediated appetite suppression: did not block

## COc1cccc(OC)c1-c1cc(C(=O)NC2(C(=O)O)C3CC4CC(C3)CC2C4)nn1-c1ccnc2cc(Cl)ccc12 (centres unmarked) [SR48692]
HNT2RL
  competition of [3H]neurotensin binding: competed at a concentration about two orders of magnitude higher
HNT2RS [3]
  competition of [3H]neurotensin binding: competed at a concentration about two orders of magnitude higher

## COc1cccc(OC)c1-c1cc(C(=O)NC2(C(=O)O)C3CC4CC(C3)CC2C4)nn1-c1ccc(C(=O)N(C)CCCN(C)C)cc1C(C)C.Cl (centres unmarked) [SR142948]
[2]
  affinity for the NT1R and NT2R subtypes: comparable affinity

## C[C@@H]1CN([C@H]2CC[C@](C#N)(c3ccc(F)cc3)CC2)CC[C@]1(C(=O)O)c1ccccc1 [levocabastine, (−)-{3S-[1(cis)-3α4β]}-1-{4-cyano-4-(4-fluoro-phenyl)-cyclohexyl)}-3-methyl-4-phenyl-4-piperidene-carboxylic acid monohydrochloride]
[2]
  binding to the NT2R subtype: high affinity
  selectivity for the NT2R over the NT1R and NT3R subtypes: 1000 fold
Fasted ob/ob males; animals pretreated with antagonist, 50 μg/kg AcNT(8-13)
  reversal of the suppression of food intake mediated by AcNT(8-13): completely reversed

## AcNT(8-13): N-acetylated form of the carboxyl terminal 6 amino acids of neurotensin (8-13)
HNT2RS [3]
  competition of [3H]neurotensin binding: equally well
[4]
  lipolytic effects (NEFAs and glycerol): elevated NEFAs and glycerol
  oxygen consumption: increased
[2]
  binding affinity compared with the 13 amino acid form of neurotensin: identical
Fasted ob/ob males; AcNT(8-13) i.p., fasted ob/ob males
  food consumption: biphasic suppression of food consumption
Fasted ob/ob males; administered acutely
  suppression of food consumption: 40-60%

## NT(9-13): neurotensin (9-13) fragment, a neurotensin receptor binding partner
HNT2RS [3]
  competition of [3H]neurotensin binding: bound with lower affinity

## [^3H]NT: tritiated neurotensin radioligand (New England Nuclear, 100 Ci/mmol)
HNT2RS [1]
  Specific [3H]NT Bound in Presence of 100 μM GTPγS: 451 cpm
HNT2RS [1]; no GTPγS
  Specific [3H]NT Bound: 697 cpm
